Laboratory results published in patent US20080248008A1, “Inhibitors of Protein Kinase a Anchoring” (priority 2004, published 2008).

Experiments:
Format in all cases: cell-based
[1] = molecular target: T1, PKA type I in lipid rafts of human peripheral blood T cells (Homo sapiens, UniProt P10644); assay: PKA type I content of lipid rafts from human T cells (immunoblot densitometry); settings: n=4; for reduction of PKA type I in lipid rafts: 12 hours
T1 construct: endogenous in cells; host or cells: human peripheral blood T cells
Description: Lipid Raft Purification. Isolation of lipid rafts or glycolipid-enriched membrane microdomains was performed as described in detail elsewhere (Zhang, W. et al., 1998, Immunity 9:239-246). In brief, cells were homogenized in 1 ml ice-cold lysis buffer (50 mM Hepes, pH 7.4, 100 mM NaCl, 5 mM EDTA, […], 10 mM sodium pyrophosphate, 1 mM Na3VO4, 50 mM NaF, 1 mM PMSF, and protease inhibitors) by 10 pestle strokes in a Dounce homogenizer, loaded at the bottom of a 40-5% sucrose gradient and centrifuged at 200,000 g for 5 or 20 h. 80 μl or 0.4-ml fractions were collected from the top. The fractions were analysed by immunoblot analysis. LAT was used as a marker for lipid raft fractions.
Isolation of T cells. Human peripheral blood T cells were purified by negative selection (95-98% pure) as described (Aandahl E M et al., 1998, FASEB J. 12:855-62). Lipid Raft Purification. Isolation of lipid rafts or glycosphingolipid-enriched membrane microdomains from T cells was performed by small scale ultracentrifugation. In brief, 20 million cells were homogenized in 250 μl ice-cold lysis buffer (50 mM Hepes, pH 7.4, 100 mM NaCl, 5 mM EDTA, […], 10 mM sodium pyrophosphate, 1 mM Na3VO4, 50 mM NaF, 1 mM PMSF, and protease inhibitors) by 10 pestle strokes in a Dounce homogenizer, loaded at the bottom of a 40 to 50 sucrose gradient and centrifuged at 200,000 g for 5 h. 80 μl fractions were collected from the top. The fractions were analysed by immunoblot analysis. LAT was used as a marker for lipid raft fractions. […]
Lipid rafts were purified from isolated human peripheral blood T cells treated with MEME3-Arg11 or SM3-Arg11 for 12 hours, followed by 10% PAGE and blotting onto a PVDF membrane and immunoblotting (FIG. 18, left panel). The PKA content was measured by densitometry of immunoblots (n=4). […] The very weak signal observed after immunoblotting using antibodies against RIIα (data not shown) was measured by densitometry of the autoradiogram. […]

[2] = test system: human peripheral blood T cells; assay: IL-2 production assay in T cells (ELISA)
Description: IL-2 production. T cells were cultured and activated by 10 or 50 μM Sp-8-Br-cAMPs (a cAMP agonist) for 15 minutes before the T cells were activated by anti-CD3/anti-CD28 beads (Dynal) for 20 hours. Cell free supernatants were harvested and stored at −80° C. until analsysed. The IL-2 levels were determined by Elisa (R & D Systems, Europe Ltd., UK):
IL-2 production Assay. Primary T cells were stimulated or not with anti-CD3/anti-CD28 coated beads (Dynal, cat. no. 111.31) for 20 hours, thereafter supernatants were harvested and the concentration of IL-2 was assessed by ELISA (R&D Systems, cat. no D2050). When used, 8-CPT-cAMP was added for 15 minutes before CD3/CD28 treatment.
To examine the effect of MEME3 on cytokine production, IL-2 levels in medium from human peripheral blood T cells treated with MEME3-Arg11 were measured by ELISA. First, cells were treated with MEME3-Arg11 for 12 hours, thereafter the PKA inhibitory pathway was activated by 10 or 50 μM Sp-8-Br-cAMPs (a cAMP agonist) for 15 minutes before the T cells were activated by CD3/CD28 stimulation (FIG. 21).

PKA-RIIα = PKA-RIIα (Homo sapiens, UniProt P13861); assay: Immunofluorescence of PKA-RIIα at centrosomes in human T cells; set-up: endogenous in cells; host or cells: human peripheral blood CD3+ T cells; settings: human peripheral blood T cells
Chain of PKA-RIIα (P13861 whole entry): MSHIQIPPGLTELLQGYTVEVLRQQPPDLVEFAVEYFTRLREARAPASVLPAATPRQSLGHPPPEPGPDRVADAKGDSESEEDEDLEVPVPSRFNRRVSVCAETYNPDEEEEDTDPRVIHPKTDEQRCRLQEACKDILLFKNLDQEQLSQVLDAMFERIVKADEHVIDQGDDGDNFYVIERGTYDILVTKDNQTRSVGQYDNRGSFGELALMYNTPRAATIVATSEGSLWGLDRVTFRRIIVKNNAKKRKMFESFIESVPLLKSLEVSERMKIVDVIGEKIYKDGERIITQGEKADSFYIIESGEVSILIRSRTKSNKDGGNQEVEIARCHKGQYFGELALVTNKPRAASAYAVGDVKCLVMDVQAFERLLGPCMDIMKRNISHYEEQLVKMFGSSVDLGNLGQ
Description: Blots were developed by using Supersignal West Pico substrate (Pierce). For immunofluorescence polyclonal and monoclonal antibodies against RIα (Biogenesis), RIIα (Transduction laboratories) and AKAP450 (A24, Tasken et al., 2001, J. Biol. Chem, 276:21999-22002) were used as primary antibodies. Secondary antibodies (all Molecular Probes) were Alexa-488 conjugated anti-mouse and anti-rabbit IgG (both goat) and Alexa-555 anti-rabbit IgG (goat).
Immunofluorescence analysis of cells was performed as previously described (Collas, P. et al., 1996, J. Cell Biol. 135, 1715-1725). RI was detected by using an anti-RI monoclonal antibody (Transduction Laboratories) as a primary antibody at a […] and Alexa-488 as a secondary antibody (1:600, Goat anti Mouse IgGs, Molecular Probes). Immunofluorescence was performed on Y1 cells attached to collagen/fibronectin coated coverslips. Mitochondria were stained using MitoTracker Red CMXRos (Molecular Probes) in fresh medium with incubation at 37° C. for 30 min prior to cell fixation. All cells were washed in PBS, fixed with 3% paraformaldehyde and permeabilised using 0.1% Triton X-100. […] Alternatively, fluorescently labeled cells were examined using a Leica TCS SP1 confocal fluorescence microscope (Leica, Heidelberg, Germany) equipped with an Ar (488 nm) and two He/Ne (543 and 633 nm) laser lines. […]

## LEQYANQLADQIIKEATERRRRRRRRRrr [MEME3-Arg11]
[1]; 10 μM
  reduction of PKA type I in lipid rafts: 80%
[1]; 10 μM, primary human T cells
  reduction of RI and C concentration in lipid rafts compared to SM3: 80%
[1]; 25 μM
  reduction of PKA type I in lipid rafts: 90%
[2]; 10 μM, relative to untreated T cells
  increase in IL-2 production: 2.5 fold
[2]; 12 hours peptide, Sp-8-Br-cAMPs, CD3/CD28 stimulation
  IL-2 levels: increased in samples treated with MEME3-Arg11 in a concentration-dependent manner
PKA-RIIα
  displacement of PKA-RIIα from centrosomes: no displacement of PKA-RIIα
